Assay results as given in patent publication US8937065B2, “Compositions and methods for modulating a kinase” (Clevexel Pharma, priority 2011, dated 2015).
Values after ≈ are worked out from the molar mass of the structure shown. Like-named read-outs stand apart in the source and are kept apart here.

Experiments:
JAK3 pathway = test: Cell based JAK3 pathway inhibition (STAT6-bla RA1 cells, IL-4 activated); details: for Emax: cell based JAK3 pathway inhibition, maximal inhibition, read-out: Max % Inh; for IC50: STAT6-bla RA1 cells, IL-4 at EC80
Experimental: 32 μL of the cell suspension (25,000 cells) was added to each well of a 384-well TC-Treated assay plate. Cells in Assay Media were incubated for 16-24 hours in the plate at 37° C./5% CO2 in a humidified incubator. 4 μL of a 10× serial dilution of a compound of the invention was added to appropriate wells of the plate and pre-incubated at 37° C./5% CO2 in a humidified incubator with cells for 30 minutes. 4 μL of 10× control activator IL-4 at the predetermined EC80 concentration was added to wells containing the compound of the invention. The plate was incubated for 5 hours at 37° C./5% CO2 in a humidified incubator. 8 μL of 1 μM Substrate Loading Solution was added to each well and the plate was incubated for 2 hours at room temperature. The plate was read on a fluorescence plate reader.

JAK3 = target: T1, JAK3 (Homo sapiens, UniProt P52333); test: JAK3 enzymatic activity assay (Z'-LYTE Biochemical Kinase Assay, 2 hr preincubation at 4° C.); details: cell free, 1% DMSO, read-out: JAK3 activity cell free (2 hr preincubation at (4° C.) Kj)
T1 construct: purchased Invitrogen, Madison, Wis
T1 sequence (P52333 1-1124): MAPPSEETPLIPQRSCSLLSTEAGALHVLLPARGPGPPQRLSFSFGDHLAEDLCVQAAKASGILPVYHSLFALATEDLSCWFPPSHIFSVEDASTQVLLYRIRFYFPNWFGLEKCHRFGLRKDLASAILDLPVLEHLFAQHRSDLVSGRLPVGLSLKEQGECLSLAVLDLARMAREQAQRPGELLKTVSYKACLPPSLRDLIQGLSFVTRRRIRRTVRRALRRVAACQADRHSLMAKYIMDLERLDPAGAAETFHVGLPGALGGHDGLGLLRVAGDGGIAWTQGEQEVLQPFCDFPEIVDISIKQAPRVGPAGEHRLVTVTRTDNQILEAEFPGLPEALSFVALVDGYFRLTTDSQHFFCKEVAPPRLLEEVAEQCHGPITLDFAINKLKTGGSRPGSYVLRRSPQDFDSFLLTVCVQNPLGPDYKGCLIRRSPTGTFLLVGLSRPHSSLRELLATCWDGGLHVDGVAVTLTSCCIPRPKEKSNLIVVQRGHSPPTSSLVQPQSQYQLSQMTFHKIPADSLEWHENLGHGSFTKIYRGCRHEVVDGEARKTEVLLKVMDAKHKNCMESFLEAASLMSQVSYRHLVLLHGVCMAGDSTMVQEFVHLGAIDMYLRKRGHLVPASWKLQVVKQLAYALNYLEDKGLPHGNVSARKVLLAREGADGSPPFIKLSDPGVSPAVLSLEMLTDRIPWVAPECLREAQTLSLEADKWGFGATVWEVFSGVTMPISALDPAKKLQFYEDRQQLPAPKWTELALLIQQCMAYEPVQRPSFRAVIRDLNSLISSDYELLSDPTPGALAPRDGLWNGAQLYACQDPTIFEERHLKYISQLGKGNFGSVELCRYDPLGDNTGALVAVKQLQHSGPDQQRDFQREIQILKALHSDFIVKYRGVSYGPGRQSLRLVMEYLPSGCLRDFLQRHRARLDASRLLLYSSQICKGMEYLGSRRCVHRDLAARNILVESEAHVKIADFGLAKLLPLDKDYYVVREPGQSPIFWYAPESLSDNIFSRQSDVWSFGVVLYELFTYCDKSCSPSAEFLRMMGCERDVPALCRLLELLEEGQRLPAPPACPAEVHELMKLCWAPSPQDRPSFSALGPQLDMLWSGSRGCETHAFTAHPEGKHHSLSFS
Experimental: The assays were performed according to manufacturer's protocols, except that prior to the kinase reaction they were pre-incubated for 2 hours at 4° C., in order to be able to assay for time-dependent inhibition.
In addition to the compound, each 10 μL JAK3 kinase reaction contained 0.43-1.89 ng JAK3 and 2 μM peptide substrate in 50 mM HEPES (pH 7.5), 0.01% BRIJ-35, 10 mM MgCl2 and 1 mM EGTA. The kinase reaction was allowed to proceed for 1 hour.

physchem = details: pH 7.4, aqueous buffer, thermodynamic from solid
Experimental: The test concentration was 100 μM (0% of DMSO for test compounds, 1% of DMSO for reference compounds). The test system was a 100 mM phosphate buffer (pH 7.4). Sample size was duplicates (n=2) and the bioanalytical method was LC-UV (Agilent-1200). Mobile phase A: H2O-1% TFA, B: MeOH-1% TFA; column Boston Symmetrix ODS-H (2.1×50 mm, 5 μm); LC conditions 0.4 mL/Min.
Assay Procedure • 1. For reference compounds: • Add 8 μL of 10 mM DMSO stock solution into 792 μL of 100 mM phosphate buffer (n=2). Final conc.=100 μM (1% of DMSO)
For test compounds: • Add 8 μL of 10 mM DMSO stock solution into the tubes (n=2). • Dry the samples under nitrogen. • Add 800 μL of 100 mM phosphate buffer into the tubes. Final conc.=100 μM (0% of DMSO) • 2. Sample tubes are shaken for 1 hour (1000 rpm) at room temperature and 37° C. • 3. Samples are centrifuged (10 min-12000 rpm) to precipitate un-dissolved particles. • 4. Supernatants are transferred to new tubes • 5. Concentrations of the supernatants after centrifugation are determined by LC-UV detection.

Daudi cells = test: Daudi CTG assay (Daudi proliferation, 72 hr, Cell Titer Glo); assay type: cell-based; details: Homo sapiens
Experimental: The compounds of the invention were tested on Daudi proliferation according to the procedure in Example 4 (for Daudi cells): Proliferation of RS4; 11, Ramos, Namalwa, RL, Molt-4 and Daudi cells. The compounds of the invention were tested on Daudi proliferation (72 hr), 3 fold dilution, and 9 points in duplicates. The top concentration for compounds of the invention was 10 uM; reference compound 7A top concentration was 10 uM; and Paclitaxel was 500 nM. Cell viability was determined using the Cell Titer Glo (CTG) reagent and detected by EnVision. EC50s were calculated by Prism 5.
The CellTiter-Glo™ Luminescent Cell Viability Assay uses ATP, a required co-factor of the luciferase reaction, as an indicator of metabolically active cells. The enzyme luciferase acts on luciferin in the presence of Mg^2+and ATP to produce oxyluciferin and to release energy in the form of luminescence. Since the luciferase reaction requires ATP, the luminescence produced is proportional to the amount of ATP present, an indicator of cellular metabolic activity.

[1] = Daudi CTG assay, Daudi proliferation 72 hr, Cell Titer Glo, top concentration 10 uM (Paclitaxel 500 nM), read-out: IC50

Row | SMILES | IC50 (JAK3 pathway) | Ki (JAK3) | Emax (JAK3 pathway) | further results
1 | O=C(c1cc(-c2csc(NCc3ccco3)n2)c[nH]1)N1CCCC1 [5A] |  |  | 68% | 
2 | O=C(c1cc(-c2csc(NCc3ccco3)n2)c[nH]1)N1CCCC1 [6A] | 1100 to 10000 nM | 1100 to 10000 nM |  | 
3 | O=C(CN1CCOCC1)Nc1cccc(-c2nc(-c3c[nH]c(C(=O)N4CCCC4)c3)cs2)c1 [7A (sample 1), 2-morpholino-N-(3-(4-(5-(pyrrolidine-1-carbonyl)-1H-pyrrol-3-yl)thiazol-2-yl)phenyl)acetamide] |  |  |  | solubility at 1 h (physchem; Solubility (μM) Mean): 5.9 µM (≈ 2.75 µg/mL); solubility at 1 h (physchem; Solubility in PBS): < 10 µM
4 | Cc1csc(Cc2nc(-c3c[nH]c(C(=O)N4CCCC4)c3)cs2)n1 [8A] |  | 1100 to 10000 nM |  | 
5 | CCOc1ccc(-c2nc(-c3c[nH]c(C(=O)N4CCCC4)c3)cs2)cc1OC [9A] |  | 1100 to 10000 nM |  | 
6 | O=C(c1cc(-c2csc(Nc3ccc(F)cc3)n2)c[nH]1)N1CCCC1 [13A] | 110 to 1000 nM |  | 78% | 
7 | CC(=O)c1ccc(Nc2nc(-c3c[nH]c(C(=O)N4CCCC4)c3)cs2)cc1 [14A] |  | 1100 to 10000 nM |  | 
8 | CN(c1ccccc1)c1nc(-c2c[nH]c(C(=O)N3CCCC3)c2)cs1 [15A] |  | > 10000 nM |  | 
9 | O=C(c1cc(-c2csc(Nc3c(F)cc(F)cc3F)n2)c[nH]1)N1CCCC1 [18A] |  | 1100 to 10000 nM |  | 
10 | CCN(CC)CC(=O)Nc1cc(-c2nc(-c3c[nH]c(C(=O)N4CCCC4)c3)cs2)ccc1OC [34A] | 110 to 1000 nM |  | 79.7% | IC50 (Daudi cells; [1]): 110 to 1000 nM
11 | O=C(c1cc(-c2csc(Nc3cccc(C(F)(F)F)c3)n2)c[nH]1)N1CCCC1 [39A] |  | 1100 to 10000 nM |  | 
12 | O=C(c1cc(-c2csc(NC3CCCC3)n2)c[nH]1)N1CCCC1 [45A] |  | 1100 to 10000 nM |  | 
13 | O=C(c1cc(-c2csc(NCc3ccc(F)cc3)n2)c[nH]1)N1CCCC1 [47A] |  | 1100 to 10000 nM |  | 
14 | O=C(c1cc(-c2csc(-c3ccccn3)n2)c[nH]1)N1CCCC1 [53A] | 110 to 1000 nM |  | 72% | 
15 | Cc1ccc(-c2nc(-c3c[nH]c(C(=O)N4CCCC4)c3)cs2)c(C)c1 [63A] | 110 to 1000 nM |  | 63% | 
16 | CC(=O)O[C@H]1C(=O)[C@@]2(C)[C@H]([C@H](OC(=O)c3ccccc3)[C@]3(O)C[C@H](OC(=O)[C@H](O)[C@@H](NC(=O)c4ccccc4)c4ccccc4)C(C)=C1C3(C)C)[C@]1(OC(C)=O)CO[C@@H]1C[C@@H]2O [Paclitaxel, paclitaxel, reference compound] |  |  |  | IC50 (Daudi cells; Daudi, read-out: Daudi CTG assay IC50, historical data): 4.69 nM; IC50 (Daudi cells; Daudi proliferation 72 hr, control compounds, read-out: Daudi CTG assay control IC50): 4.5 nM

Now from value to compound, other results behind:

Row | IC50 (JAK3 pathway) | Ki (JAK3) | SMILES | Emax (JAK3 pathway) | further results
17 |  | 1100 to 10000 nM | COc1cccc(-c2nc(-c3c[nH]c(C(=O)N4CCCC4)c3)cs2)c1 [10A] |  | 
18 | 110 to 1000 nM |  | O=C(c1cc(-c2csc(Nc3ccccc3)n2)c[nH]1)N1CCCC1 [12A] | 81% | 
19 |  | > 10000 nM | O=C(Nc1cccc(-c2nc(-c3c[nH]c(C(=O)N4CCCC4)c3)cs2)c1)c1ccccc1 [16A] |  | 
20 | 110 to 1000 nM | > 10000 nM | CN1CCN(CC(=O)Nc2cccc(-c3nc(-c4c[nH]c(C(=O)N5CCCC5)c4)cs3)c2)CC1 [17A] |  | 
21 |  | 1100 to 10000 nM | O=C(c1cc(-c2csc(Nc3ccc(N4CCOCC4)cc3)n2)c[nH]1)N1CCCC1 [19A] |  | 
22 | 110 to 1000 nM |  | O=C(CN1CCCCC1)Nc1cccc(-c2nc(-c3c[nH]c(C(=O)N4CCCC4)c3)cs2)c1 [20A] | 80.2% | 
23 | 110 to 1000 nM |  | CC(=O)Nc1cccc(-c2nc(-c3c[nH]c(C(=O)N4CCCC4)c3)cs2)c1 [21A] | 84.4% | 
24 | 110 to 1000 nM |  | O=C(CN1CCOCC1)Nc1ccc(-c2nc(-c3c[nH]c(C(=O)N4CCCC4)c3)cs2)cc1 [22A] | 100% | 
25 | 1100 to 10000 nM |  | CN(C)C(=O)c1cc(-c2csc(-c3cccc(NC(=O)CN4CCOCC4)c3)n2)c[nH]1 [23A] | 75.1% | 
26 | 1100 to 10000 nM |  | CN(C)C(=O)c1cc(-c2csc(-c3cccc(NC(=O)CN4CCCCC4)c3)n2)c[nH]1 [24A] | 74.7% | 
27 | > 10000 nM |  | CN1CCN(CC(=O)Nc2cccc(-c3nc(-c4c[nH]c(C(=O)N(C)C)c4)cs3)c2)CC1 [25A] |  | 
28 | 110 to 1000 nM |  | CN(C)CC(=O)Nc1cccc(-c2nc(-c3c[nH]c(C(=O)N4CCCC4)c3)cs2)c1 [26A] | 74.6% | 
29 | 1100 to 10000 nM |  | O=C(CN1CCOCC1)Nc1cccc(-c2nc(-c3c[nH]c(C(=O)NC4CC4)c3)cs2)c1 [27A] | 100% | 
30 | 110 to 1000 nM |  | O=C(Nc1cccc(-c2nc(-c3c[nH]c(C(=O)N4CCCC4)c3)cs2)c1)N1CCOCC1 [28A] | 82.3% | 
31 | > 10000 nM |  | NC(=O)c1cc(-c2csc(-c3cccc(NC(=O)CN4CCOCC4)c3)n2)c[nH]1 [29A] |  | IC50 (Daudi cells; [1]): > 10000 nM
32 | 1100 to 10000 nM |  | CCN(CC)C(=O)c1cc(-c2csc(-c3cccc(NC(=O)CN4CCOCC4)c3)n2)c[nH]1 [30A] | 98.2% | IC50 (Daudi cells; [1]): 1100 to 10000 nM
33 | 1100 to 10000 nM |  | O=C(CN1CCOCC1)Nc1ccc(-c2nc(-c3c[nH]c(C(=O)N4CCCCC4)c3)cs2)cc1 [31A] | 76.8% | IC50 (Daudi cells; [1]): 1100 to 10000 nM
34 | 110 to 1000 nM |  | COc1ccc(-c2nc(-c3c[nH]c(C(=O)N4CCCC4)c3)cs2)cc1NC(=O)CN1CCOCC1 [32A] | 71.7% | IC50 (Daudi cells; [1]): 110 to 1000 nM
35 | 110 to 1000 nM |  | COc1ccc(-c2nc(-c3c[nH]c(C(=O)N4CCCC4)c3)cs2)cc1NC(=O)CN1CCCCC1 [33A] | 69.8% | IC50 (Daudi cells; [1]): 110 to 1000 nM
36 | 110 to 1000 nM |  | O=C(CN1CCOCC1)Nc1cc(-c2nc(-c3c[nH]c(C(=O)N4CCCC4)c3)cs2)ccc1F [35A] | 78.9% | IC50 (Daudi cells; [1]): 110 to 1000 nM
37 | 110 to 1000 nM |  | O=C(c1cc(-c2csc(-c3ccc(Cl)cc3)n2)c[nH]1)N1CCCC1 [61A] | 60% | 
38 |  | 1100 to 10000 nM | Cc1ccccc1-c1nc(-c2c[nH]c(C(=O)N3CCCC3)c2)cs1 [64A] |  | 
